# Measurements taken from article PMC6114104 (International Journal for Parasitology: Drugs and Drug …, 2018).
# Counter-ions that a name gives are not always drawn. Like-named read-outs stand apart in the source and are kept apart here. Marks after values point to notes of the source that are not given here.
# Key:
# [1] = test system: BT cells (bovine turbinate cells); conditions: uninfected BT cells, 3 days; 100 μM maximum concentration tested
# [2] = test system: S. neurona + GFP/FLUC parasites; assay: Luciferase-based S. neurona growth inhibition, EC50 determination; conditions: for EC50: Sarcocystis neurona; for TI (TC50/EC50): ratio of BT cell TC50 to S. neurona EC50
# [3] = horses, ref DiMaio Knych et al., 2011, cited from earlier work
# [4] = test system: S. neurona + GFP/FLUC parasites; assay: microbe, parasite or virus in culture; assay type: cell-based, Sarcocystis neurona; conditions: for Effect on S. neurona growth reflected by increases in FLUC activity: 10 μM HTS, not confirmed with secondary screening
# S. neurona parasites = conditions: ref Lindsay and Dubey, 1999; cited from earlier work
# S. neurona = conditions: ref Gargala et al., 2009, cited from earlier work
# Cryptosporidium parvum = conditions: ref Bessoff et al., 2013; cited from earlier work
# T. gondii = conditions: ref Dittmar et al., 2016; Wang et al., 2017; Bowden, unpublished data; cited from earlier work
# P. falciparum = conditions: PubChem BioAssay; ref Wang et al., 2017; cited from earlier work
# [5] = 96 h, read-out: EC50 in μM (95% CI)
SMILES,TC50 [1] [µM],"EC50 [2, 5] [µM]",TI (TC50/EC50) [2],further results
CC(C)/N=c1\cc2n(-c3ccc(Cl)cc3)c3ccccc3nc-2cc1Nc1ccc(Cl)cc1 [Clofazimine],>100,3.7,27,
OCCN1CCN(CCCN2c3ccccc3Sc3ccc(Cl)cc32)CC1 [Perphenazine],14,3.3,4,
Oc1c(Cl)cc(Cl)c2cccnc12 [Chloroxine],16,2.5,6,
CN1CCN(CC/C=C2/c3ccccc3Sc3ccc(S(=O)(=O)N(C)C)cc32)CC1 [Thiothixene],30,6.3,5,
COc1cc(NC(C)CCCN)c2ncccc2c1 (stereo not drawn) [Primaquine phosphate],47,2.2,21,
O=C1CN(/N=C/c2ccc(-c3ccc([N+](=O)[O-])cc3)o2)C(O)=N1 [Dantrolene],52,0.065,800,"Peak plasma concentration ([3]; 500 mg capsules, converted): 85.95 nM; Peak plasma concentration ([3]; 500 mg capsules): 28.9 ± 21.6 ng/mL; Peak plasma concentration ([3]; 500 mg paste, converted): 112.4 nM; Peak plasma concentration ([3]; 500 mg paste): 37.8 ± 12.8 ng/mL; Time of peak plasma concentration after administration ([3]; both formulations (capsules and paste)): 3.8 h; EC50 ([2]; read-out: EC50 for S. neurona inhibition in ng/ml): 21.9 ng/mL"
CN1CCCC(n2nc(Cc3ccc(Cl)cc3)c3ccccc3c2=O)CC1 (stereo not drawn) [Azelastine HCl],28,2.5,11,
Cc1ccc(-c2nc3ccc(C)cn3c2CC(=O)N(C)C)cc1 [zolpidem tartrate],,,,Effect on S. neurona growth reflected by increases in FLUC activity [4]: growth-enhancing
COc1cc(Cc2cnc(N)nc2N)cc(OC)c1OC [trimethoprim],,~19,,"inhibition at 10 µM ([4]; Sarcocystis neurona, read-out: % inhibition of parasite growth in HTS): ≤ 80%; Reported EC50 for S. neurona parasites in vitro (S. neurona parasites): 2.5 µg/mL"
COc1cc2nc(N3CCN(C(=O)c4ccco4)CC3)nc(N)c2cc1OC [Prazosin],45,6,8,
CCN(CC)C(=S)SSC(=S)N(CC)CC [Disulfiram],20,0.15,,
CCc1nc(N)nc(N)c1-c1ccc(Cl)cc1 [Pyrimethamine],>100,3.9,26,"FLUC activity of treated parasites ([2]; 10 μM, measured every 2 days over 10-day incubation): severely diminished FLUC activity; EC50 ([2]; read-out: EC50 of pyrimethamine (HTS validation, Fig. 2B)): 3.22 µM"
c1ccc2[nH]c(-c3cscn3)nc2c1 [thibendazole],,,,Effect on S. neurona growth reflected by increases in FLUC activity [4]: growth-enhancing
Cl.O=C1[C@H]2CCCC[C@H]2C(=O)N1CCCCN1CCN(c2nsc3ccccc23)CC1 [Perospirone HCl],86,,25,
CC(=O)Oc1ccccc1C(=O)Nc1ncc([N+](=O)[O-])s1 [nitazoxanide],,~12,,"Reported mean 90% inhibitory activity against S. neurona, in μM (S. neurona; approximate conversion): approximately 6.2 μM; Reported mean 90% inhibitory activity against S. neurona (S. neurona): 1.9 mg/L"
CCCCCCNC(=O)n1cc(F)c(=O)[nH]c1=O [Carmofur],>100,0.73,137,Activity against Cryptosporidium parvum (Cryptosporidium parvum): active; Activity against T. gondii (T. gondii): active; Activity against P. falciparum (P. falciparum): active
C[C@H]1[C@H](OC(=O)CCC(=O)O)O[C@@H]2O[C@@]3(C)CC[C@H]4[C@H](C)CC[C@@H]1[C@@]24OO3 [Artesunate],>100,3.3,30,
O=c1c(-c2ccccc2)c1-c1ccccc1 [Diphenylcyclopropenone],19,2.5,8,
CCCSc1ccc2nc(NC(=O)OC)[nH]c2c1 [albendazole],,,,Effect on S. neurona growth reflected by increases in FLUC activity [4]: growth-enhancing
Oc1c(Cl)cc(Cl)c(Cl)c1Cc1c(O)c(Cl)cc(Cl)c1Cl [Hexachlorophene],56,2.8,20,
O=c1[nH]cc(F)c(=O)[nH]1 [Fluorouracil],78,0.79,99,Activity against Cryptosporidium parvum (Cryptosporidium parvum): active; Activity against T. gondii (T. gondii): active; Activity against P. falciparum (P. falciparum): active
O=C(c1ccc(F)cc1)C1CCN(CCn2c(=S)[nH]c3ccccc3c2=O)CC1 [Altanserin],,3.5,29,TC50 in μM [1]: >100 ^a μM
